Source: publication PMC9848257, “Design and synthesis of novel rigid dibenzo[b,f]azepines through ring closure technique as promising anticancer candidates against leukaemia and acting as selective topoisomerase II inhibitors and DNA intercalators” (Journal of Enzyme Inhibition and Medicinal Chemistry, 2023)

Experiments:
[1] = tested on: HOP-92; test: NCI-60 one-dose screen, HOP-92; format: cell-based; conditions: Homo sapiens; HOP-92, non-small cell lung cancer; single dose 10 μM; read-out: Growth inhibition %
Protocol: (§1) Anti-proliferative effects of the counterparts 4a–g and 5a–g were screened against 60 human cancer cell lines, following the Developmental Therapeutics Program protocol, National Cancer Institute[35].
(§2) The anti-tumour activity of the fourteen synthesised congeners was investigated at the NCI against a panel of 60 cancer cell lines (NCI-60 Cell One-Dose Screen). The tested dibenzo[b,f]azepine derivatives were screened at a single dose level (10 μM), Table 1.

[2] = tested on: NCI-H522; test: NCI-60 one-dose screen, NCI-H522; format: cell-based; conditions: Homo sapiens; NCI-H522, non-small cell lung cancer; single dose 10 μM; read-out: Growth inhibition %
Protocol: as §1, §2

[3] = tested on: HL-60(TB); test: NCI-60 one-dose screen, HL-60(TB); format: cell-based; conditions: Homo sapiens, leukaemia, single dose 10 μM, read-out: Growth inhibition %
Protocol: as §1, §2

[4] = tested on: KM12; test: NCI-60 one-dose screen, KM12; format: cell-based; conditions: Homo sapiens; KM12, colon cancer; single dose 10 μM; read-out: Growth inhibition %
Protocol: as §1, §2

[5] = tested on: HT29; test: NCI-60 one-dose screen, HT29; format: cell-based; conditions: Homo sapiens, HT-29; HT29, colon cancer; single dose 10 μM; read-out: Growth inhibition %
Protocol: as §1, §2

[6] = tested on: SK-MEL-5; test: NCI-60 one-dose screen, SK-MEL-5; format: cell-based; conditions: Homo sapiens; SK-MEL-5, melanoma; single dose 10 μM; read-out: Growth inhibition %
Protocol: as §1, §2

[7] = tested on: SNB-19; test: NCI-60 one-dose screen, SNB-19; format: cell-based; conditions: Homo sapiens; SNB-19, CNS cancer; single dose 10 μM; read-out: Growth inhibition %
Protocol: as §1, §2

[8] = tested on: SR; test: NCI-60 one-dose screen, SR; format: cell-based; conditions: Homo sapiens, leukaemia, single dose 10 μM, read-out: Growth inhibition %
Protocol: as §1, §2

[9] = tested on: HCT-116; test: NCI-60 one-dose screen, HCT-116; format: cell-based; conditions: Homo sapiens; HCT-116, colon cancer; single dose 10 μM; read-out: Growth inhibition %
Protocol: as §1, §2

[10] = tested on: RPMI-8226; test: NCI-60 one-dose screen, RPMI-8226; format: cell-based; conditions: Homo sapiens; RPMI-8226, leukaemia; single dose 10 μM; read-out: Growth inhibition %
Protocol: as §1, §2

[11] = tested on: SF-295; test: NCI-60 one-dose screen, SF-295; format: cell-based; conditions: Homo sapiens; SF-295, CNS cancer; single dose 10 μM; read-out: Growth inhibition %
Protocol: as §1, §2

[12] = tested on: NCI-H226; test: NCI-60 one-dose screen, NCI-H226; format: cell-based; conditions: Homo sapiens; NCI-H226, non-small cell lung cancer; single dose 10 μM; read-out: Growth inhibition %
Protocol: as §1, §2

[13] = tested on: DU-145; test: NCI-60 one-dose screen, DU-145; format: cell-based; conditions: Homo sapiens; DU-145, prostate cancer; single dose 10 μM; read-out: Growth inhibition %
Protocol: as §1, §2

[14] = tested on: MOLT-4; test: NCI-60 one-dose screen, MOLT-4; format: cell-based; conditions: Homo sapiens; MOLT-4, leukaemia; single dose 10 μM; read-out: Growth inhibition %
Protocol: as §1, §2

[15] = tested on: OVCAR-8; test: NCI-60 one-dose screen, OVCAR-8; format: cell-based; conditions: Homo sapiens; OVCAR-8, ovarian cancer; single dose 10 μM; read-out: Growth inhibition %
Protocol: as §1, §2

[16] = tested on: EKVX; test: NCI-60 one-dose screen, EKVX; format: cell-based; conditions: Homo sapiens, non-small cell lung cancer, single dose 10 μM, read-out: Growth inhibition %
Protocol: as §1, §2

[17] = tested on: MDA-MB-435; test: NCI-60 one-dose screen, MDA-MB-435; format: cell-based; conditions: Homo sapiens; MDA-MB-435, melanoma; single dose 10 μM; read-out: Growth inhibition %
Protocol: as §1, §2

[18] = tested on: CCRF-CEM; test: NCI-60 one-dose screen, CCRF-CEM; format: cell-based; conditions: Homo sapiens, leukaemia, single dose 10 μM, read-out: Growth inhibition %
Protocol: as §1, §2

[19] = tested on: TK-10; test: NCI-60 one-dose screen, TK-10; format: cell-based; conditions: Homo sapiens; TK-10, renal cancer; single dose 10 μM; read-out: Growth inhibition %
Protocol: as §1, §2

[20] = tested on: COLO 205; test: NCI-60 one-dose screen, COLO 205; format: cell-based; conditions: Homo sapiens; COLO 205, colon cancer; single dose 10 μM; read-out: Growth inhibition %
Protocol: as §1, §2

[21] = tested on: SW-620; test: NCI-60 one-dose screen, SW-620; format: cell-based; conditions: Homo sapiens; SW-620, colon cancer; single dose 10 μM; read-out: Growth inhibition %
Protocol: as §1, §2

[22] = tested on: MDA-MB-231-ATCC; test: NCI-60 one-dose screen, MDA-MB-231-ATCC; format: cell-based; conditions: Homo sapiens, breast cancer, single dose 10 μM, read-out: Growth inhibition %
Protocol: as §1, §2

[23] = tested on: K-562; test: NCI-60 one-dose screen, K-562; format: cell-based; conditions: Homo sapiens, K562; K-562, leukaemia; single dose 10 μM; read-out: Growth inhibition %
Protocol: as §1, §2

[24] = tested on: OVCAR-4; test: NCI-60 one-dose screen, OVCAR-4; format: cell-based; conditions: Homo sapiens; OVCAR-4, ovarian cancer; single dose 10 μM; read-out: Growth inhibition %
Protocol: as §1, §2

[25] = tested on: SK-OV-3; test: NCI-60 one-dose screen, SK-OV-3; format: cell-based; conditions: Homo sapiens; SK-OV-3, ovarian cancer; single dose 10 μM; read-out: Growth inhibition %
Protocol: as §1, §2

[26] = tested on: UACC-62; test: NCI-60 one-dose screen, UACC-62; format: cell-based; conditions: Homo sapiens; UACC-62, melanoma; single dose 10 μM; read-out: Growth inhibition %
Protocol: as §1, §2

[27] = tested on: OVCAR-3; test: NCI-60 one-dose screen, OVCAR-3; format: cell-based; conditions: Homo sapiens; OVCAR-3, ovarian cancer; single dose 10 μM; read-out: Growth inhibition %
Protocol: as §1, §2

[28] = tested on: U251; test: NCI-60 one-dose screen, U251; format: cell-based; conditions: Homo sapiens, U-251; U251, CNS cancer; single dose 10 μM; read-out: Growth inhibition %
Protocol: as §1, §2

[29] = tested on: PC-3; test: NCI-60 one-dose screen, PC-3; format: cell-based; conditions: Homo sapiens; PC-3, prostate cancer; single dose 10 μM; read-out: Growth inhibition %
Protocol: as §1, §2

[30] = tested on: HS 578 T; test: NCI-60 one-dose screen, HS 578 T; format: cell-based; conditions: Homo sapiens, breast cancer, single dose 10 μM, read-out: Growth inhibition %
Protocol: as §1, §2

[31] = tested on: UO-31; test: NCI-60 one-dose screen, UO-31; format: cell-based; conditions: Homo sapiens; UO-31, renal cancer; single dose 10 μM; read-out: Growth inhibition %
Protocol: as §1, §2

[32] = tested on: SF-268; test: NCI-60 one-dose screen, SF-268; format: cell-based; conditions: Homo sapiens; SF-268, CNS cancer; single dose 10 μM; read-out: Growth inhibition %
Protocol: as §1, §2

[33] = tested on: SK-MEL-28; test: NCI-60 one-dose screen, SK-MEL-28; format: cell-based; conditions: Homo sapiens; SK-MEL-28, melanoma; single dose 10 μM; read-out: Growth inhibition %
Protocol: as §1, §2

[34] = tested on: A498; test: NCI-60 one-dose screen, A498; format: cell-based; conditions: Homo sapiens; A498, renal cancer; single dose 10 μM; read-out: Growth inhibition %
Protocol: as §1, §2

O=C(NNC(=O)N1c2ccccc2C=Cc2ccccc21)c1ccc(Cl)cc1 [Compound 4c, N′-(4-Chlorobenzoyl)-5H-dibenzo[b,f]azepine-5-carbohydrazide]
inhibition at 10 µM [1]: < 10%
inhibition at 10 µM [2]: < 10%
inhibition at 10 µM [3]: < 10%
inhibition at 10 µM [4]: < 10%
inhibition at 10 µM [5]: < 10%
inhibition at 10 µM [6]: < 10%
inhibition at 10 µM [7]: < 10%
inhibition at 10 µM [8]: < 10%
inhibition at 10 µM [9]: < 10%
inhibition at 10 µM [10]: < 10%
inhibition at 10 µM [11]: < 10%
melting point: 229 to 231 °C
inhibition at 10 µM [12]: < 10%
inhibition at 10 µM [13]: < 10%
inhibition at 10 µM [14]: < 10%
inhibition at 10 µM [15]: < 10%
inhibition at 10 µM [16]: < 10%
inhibition at 10 µM [17]: < 10%
inhibition at 10 µM [18]: < 10%
inhibition at 10 µM [19]: 13.2%
inhibition at 10 µM [20]: < 10%
inhibition at 10 µM [21]: < 10%
inhibition at 10 µM [22]: < 10%
inhibition at 10 µM [23]: < 10%
inhibition at 10 µM [24]: < 10%
inhibition at 10 µM [25]: < 10%
inhibition at 10 µM [26]: < 10%
inhibition at 10 µM [27]: < 10%
inhibition at 10 µM [28]: < 10%
inhibition at 10 µM [29]: < 10%
inhibition at 10 µM [30]: < 10%
inhibition at 10 µM [31]: < 10%
inhibition at 10 µM [32]: < 10%
inhibition at 10 µM [33]: < 10%
inhibition at 10 µM [34]: < 10%

O=[N+]([O-])c1ccc(-c2nnc(N3c4ccccc4C=Cc4ccccc43)o2)cc1 [Compound 5e, 2-(5 h-Dibenzo[b,f]azepin-5-yl)-5–(4-nitrophenyl)-1,3,4-oxadiazole]
inhibition at 10 µM [1]: 22.8%
inhibition at 10 µM [2]: 15%
inhibition at 10 µM [3]: 30.1%
inhibition at 10 µM [4]: < 10%
inhibition at 10 µM [5]: < 10%
inhibition at 10 µM [6]: 13.7%
inhibition at 10 µM [7]: < 10%
inhibition at 10 µM [8]: 30.1%
inhibition at 10 µM [9]: < 10%
inhibition at 10 µM [10]: < 10%
inhibition at 10 µM [11]: < 10%
melting point: 146 to 148 °C
inhibition at 10 µM [12]: 13.7%
inhibition at 10 µM [13]: < 10%
inhibition at 10 µM [14]: 19.4%
inhibition at 10 µM [15]: 1.15%
inhibition at 10 µM [16]: < 10%
inhibition at 10 µM [17]: < 10%
inhibition at 10 µM [18]: < 10%
inhibition at 10 µM [19]: < 10%
inhibition at 10 µM [20]: < 10%
inhibition at 10 µM [21]: < 10%
inhibition at 10 µM [22]: 15.3%
inhibition at 10 µM [23]: 25.3%
inhibition at 10 µM [24]: 21.8%
inhibition at 10 µM [25]: < 10%
inhibition at 10 µM [26]: 30%
inhibition at 10 µM [27]: < 10%
inhibition at 10 µM [29]: 24.6%
inhibition at 10 µM [30]: < 10%
inhibition at 10 µM [31]: 30.7%
inhibition at 10 µM [32]: 16.1%
inhibition at 10 µM [33]: < 10%
inhibition at 10 µM [34]: 14.8%
